Source: patent publication US20250263370A1 (Tay Therapeutics Limited, priority 2022, published 2025)
Several values for one entry are separate records, joined by “and”; a condition that tells them apart may be missing. Equal entries are not always repeated.

Test system: collagen-induced arthritis
Experiment: Collagen-induced arthritis (CIA) model in rats: body weight, paw volume, clinical scores, clinical observations; for Average detailed clinical score, left hind limb: key of the grades not given here; for Average detailed clinical score, right hind limb: key of the grades not given here; for Detailed Clinical Scores, left forelimb: key of the grades not given here; for Detailed Clinical Scores, left hind limb: key of the grades not given here; for Detailed Clinical Scores, right forelimb: key of the grades not given here; for Detailed Clinical Scores, right hind limb: key of the grades not given here; for Detailed Clinical Scores, score: key of the grades not given here; for Detailed Clinical Scores: left forelimb: key of the grades not given here; for Detailed Clinical Scores: left hind limb: key of the grades not given here; for Detailed Clinical Scores: right forelimb: key of the grades not given here; for Detailed Clinical Scores: right hind limb: key of the grades not given here; for Detailed Clinical Scores: score: key of the grades not given here; for Mean overall clinical score ± SD: key of the grades not given here; for overall clinical score: key of the grades not given here
Conditions: for Average detailed clinical score, right hind limb / Average detailed clinical score, score / Mean overall clinical score ± SD / Overall clinical score / Average detailed clinical score, left forelimb / Average detailed clinical score, left hind limb / Average detailed clinical score, right forelimb / Detailed Clinical Scores, left forelimb / Detailed Clinical Scores, left hind limb / Detailed Clinical Scores, right forelimb / Detailed Clinical Scores, right hind limb / Detailed Clinical Scores, score / Detailed Clinical Scores: left forelimb / Detailed Clinical Scores: left hind limb / Detailed Clinical Scores: right forelimb / Detailed Clinical Scores: right hind limb / Detailed Clinical Scores: score: CIA rats; for Overall clinical score: individual animals #1-8; for Mean animal paw volume ± SD: group mean; for Detailed Clinical Scores, left forelimb / Detailed Clinical Scores, left hind limb / Detailed Clinical Scores, right forelimb / Detailed Clinical Scores, right hind limb / Detailed Clinical Scores, score / Detailed Clinical Scores: left forelimb / Detailed Clinical Scores: left hind limb / Detailed Clinical Scores: right forelimb / Detailed Clinical Scores: right hind limb / Detailed Clinical Scores: score: individual animals ID 1-8; for Animal paw volume percent change: individual animals
Description: Prior to be randomly placed in treatment groups, animals were weighed, and paw volume was measured. Once randomly assigned to treatment groups, on Day 0, animals in groups 2-9 were immunized by subcutaneous injection at the base of the tail.
The immunization comprised 100 μL of the CFA+Collagen emulsion (prepared according to the method in Experimental Method A). Animals in group one received no immunization. Seven days after the first injection, animals in groups 2-9 received a booster immunization comprising 200 μL of the IFA+Collagen emulsion (prepared according to the method in Experimental Method A).
Starting on Day 0, animals in group 1 and 2 were administered daily doses of the vehicle per os (P.O.) for 21 days. […] The twice daily doses for animals in groups 4-9 were 8 hours apart (e.g., the first dose at 8:00 AM and the second dose at 4:00 PM).
Body weight of all animals was recorded daily for the 21-day period. Blind clinical scores on all four limbs were conducted for all animals in the study. Animals were assessed prior to receiving their first dose of the compound or control, and scores for each limb were combined to a total daily score for each animal. Clinical score assessments were performed on Day 0, 6, 12, 13, 14, 15, 18, 19, and 21 (for a total of 9 daily scores).
Paw volume was recorded for each animal on Day 0, 6, 12, 13, 14, 15, 18, 19, and 21 (for a total of 9 measurements). To measure paw volume, animals were gently held with one hand while the hind paw was placed into a plethysmometer with the other hand. Lipid displacement by the paw was recorded and used to represent paw volume.
All data measured and recorded was analyzed using SPSS 16.0 software. Groups were compared using one-way ANOVA and significance was set at p<0.05.

CNC(=O)c1[nH]c(C(=O)NC2CCC2)cc1O[C@@H](C)c1ccccc1 (stereo in doubt) [Example 101, N^5-cyclobutyl-N^2-methyl-3-(1-phenylethoxy)-1H-pyrrole-2,5-dicarboxamide]
Average detailed clinical score, right hind limb (Day 12, 10 mg/kg): 0.25 | Average detailed clinical score, score (Day 12, 10 mg/kg): 0.50 | Mean overall clinical score ± SD (Day 12, 10 mg/kg): 1 ± 1 | Overall clinical score (Day 12, 10 mg/kg): 1 and 0 and 2 | Average detailed clinical score, left forelimb (Day 12, 30 mg/kg): 0.00 | Average detailed clinical score, left hind limb (Day 12, 30 mg/kg): 0.00 | Average detailed clinical score, right forelimb (Day 12, 30 mg/kg): 0.00 | Average detailed clinical score, right hind limb (Day 12, 30 mg/kg): 0.13 | Average detailed clinical score, score (Day 12, 30 mg/kg): 0.13 | Mean overall clinical score ± SD (Day 12, 30 mg/kg): 0 ± 0 | Mean animal paw volume ± SD (Day 13, L paw, 3 mg/kg): 1.53 mL | Mean animal paw volume ± SD (Day 13, L paw, 10 mg/kg): 1.52 mL | Mean animal paw volume ± SD (Day 13, L paw, 30 mg/kg): 1.35 mL | Mean animal paw volume ± SD (Day 13, R paw, 3 mg/kg): 1.46 mL | Mean animal paw volume ± SD (Day 13, R paw, 10 mg/kg): 1.45 mL | Mean animal paw volume ± SD (Day 13, R paw, 30 mg/kg): 1.37 mL | Detailed Clinical Scores, left forelimb (Day 13, 3 mg/kg): 0 | Detailed Clinical Scores, left hind limb (Day 13, 3 mg/kg): 1 (4×) and 0 (3×) and 2 | Detailed Clinical Scores, right forelimb (Day 13, 3 mg/kg): 0 (6×) and 1 (2×) | Detailed Clinical Scores, right hind limb (Day 13, 3 mg/kg): 0 (7×) and 1 | Detailed Clinical Scores, score (Day 13, 3 mg/kg): 1 (2×) and 2 (2×) and 0 (3×) and 3 | Detailed Clinical Scores, left forelimb (Day 13, 10 mg/kg): 0 | Detailed Clinical Scores, left hind limb (Day 13, 10 mg/kg): 2 (3×) and 0 (4×) and 1 | Detailed Clinical Scores, right forelimb (Day 13, 10 mg/kg): 0 | Detailed Clinical Scores, right hind limb (Day 13, 10 mg/kg): 1 and 0 (6×) and 2 | Detailed Clinical Scores, score (Day 13, 10 mg/kg): 3 and 0 (4×) and 4 and 2 and 1 | Detailed Clinical Scores, left forelimb (Day 13, 30 mg/kg): 0 | Detailed Clinical Scores, left hind limb (Day 13, 30 mg/kg): 0 | Detailed Clinical Scores, right forelimb (Day 13, 30 mg/kg): 0 | Detailed Clinical Scores, right hind limb (Day 13, 30 mg/kg): 1 and 0 (7×) | Detailed Clinical Scores, score (Day 13, 30 mg/kg): 1 and 0 (7×) | Average detailed clinical score, left forelimb (Day 13, 3 mg/kg): 0.00 | Average detailed clinical score, left hind limb (Day 13, 3 mg/kg): 0.75 | Average detailed clinical score, right forelimb (Day 13, 3 mg/kg): 0.25 | Average detailed clinical score, right hind limb (Day 13, 3 mg/kg): 0.13 | Average detailed clinical score, score (Day 13, 3 mg/kg): 1.13 | Mean overall clinical score ± SD (Day 13, 3 mg/kg): 1 ± 1 | Overall clinical score (Day 13, 3 mg/kg): 1 (2×) and 2 (2×) and 0 (3×) and 3 | Average detailed clinical score, left forelimb (Day 13, 10 mg/kg): 0.00 | Average detailed clinical score, left hind limb (Day 13, 10 mg/kg): 0.88 | Average detailed clinical score, right forelimb (Day 13, 10 mg/kg): 0.00 | Average detailed clinical score, right hind limb (Day 13, 10 mg/kg): 0.38 | Average detailed clinical score, score (Day 13, 10 mg/kg): 1.25 | Mean overall clinical score ± SD (Day 13, 10 mg/kg): 1 ± 2 | Overall clinical score (Day 13, 10 mg/kg): 3 and 0 and 4 | Average detailed clinical score, left forelimb (Day 13, 30 mg/kg): 0.00 | Average detailed clinical score, left hind limb (Day 13, 30 mg/kg): 0.00 | Average detailed clinical score, right forelimb (Day 13, 30 mg/kg): 0.00 | Average detailed clinical score, right hind limb (Day 13, 30 mg/kg): 0.13 | Average detailed clinical score, score (Day 13, 30 mg/kg): 0.13 | Mean overall clinical score ± SD (Day 13, 30 mg/kg): 0 ± 0 | Mean animal paw volume ± SD (Day 14, L paw, 3 mg/kg): 1.69 mL | Mean animal paw volume ± SD (Day 14, L paw, 10 mg/kg): 1.70 mL | Mean animal paw volume ± SD (Day 14, L paw, 30 mg/kg): 1.35 mL | Mean animal paw volume ± SD (Day 14, R paw, 3 mg/kg): 1.59 mL | Mean animal paw volume ± SD (Day 14, R paw, 10 mg/kg): 1.59 mL | Mean animal paw volume ± SD (Day 14, R paw, 30 mg/kg): 1.37 mL | Detailed Clinical Scores, left forelimb (Day 14, 3 mg/kg): 0 | Detailed Clinical Scores, left hind limb (Day 14, 3 mg/kg): 1 (7×) and 3 | Detailed Clinical Scores, right forelimb (Day 14, 3 mg/kg): 0 (6×) and 1 (2×) | Detailed Clinical Scores, right hind limb (Day 14, 3 mg/kg): 1 (2×) and 0 (4×) and 2 and 3 | Detailed Clinical Scores, score (Day 14, 3 mg/kg): 2 (3×) and 4 and 1 (3×) and 6 | Detailed Clinical Scores, left forelimb (Day 14, 10 mg/kg): 0 | Detailed Clinical Scores, left hind limb (Day 14, 10 mg/kg): 3 (3×) and 4 and 0 (4×) | Detailed Clinical Scores, right forelimb (Day 14, 10 mg/kg): 0 | Detailed Clinical Scores, right hind limb (Day 14, 10 mg/kg): 1 (3×) and 3 and 0 (4×) | Detailed Clinical Scores, score (Day 14, 10 mg/kg): 4 (2×) and 6 and 5 and 0 (4×) | Detailed Clinical Scores, left forelimb (Day 14, 30 mg/kg): 0 | Detailed Clinical Scores, left hind limb (Day 14, 30 mg/kg): 0 | Detailed Clinical Scores, right forelimb (Day 14, 30 mg/kg): 0 | Detailed Clinical Scores, right hind limb (Day 14, 30 mg/kg): 1 and 0 (7×) | Detailed Clinical Scores, score (Day 14, 30 mg/kg): 1 and 0 (7×) | Average detailed clinical score, left forelimb (Day 14, 3 mg/kg): 0.00 | Average detailed clinical score, left hind limb (Day 14, 3 mg/kg): 1.25 | Average detailed clinical score, right forelimb (Day 14, 3 mg/kg): 0.25 | Average detailed clinical score, right hind limb (Day 14, 3 mg/kg): 0.88 | Average detailed clinical score, score (Day 14, 3 mg/kg): 2.38 | Mean overall clinical score ± SD (Day 14, 3 mg/kg): 2 ± 2 | Overall clinical score (Day 14, 3 mg/kg): 2 (3×) and 4 and 1 (3×) and 6 | Average detailed clinical score, left forelimb (Day 14, 10 mg/kg): 0.00 | Average detailed clinical score, left hind limb (Day 14, 10 mg/kg): 1.63 | Average detailed clinical score, right forelimb (Day 14, 10 mg/kg): 0.00 | Average detailed clinical score, right hind limb (Day 14, 10 mg/kg): 0.75 | Average detailed clinical score, score (Day 14, 10 mg/kg): 2.38 | Mean overall clinical score ± SD (Day 14, 10 mg/kg): 2 ± 3 | Overall clinical score (Day 14, 10 mg/kg): 4 (2×) and 6 | Average detailed clinical score, left forelimb (Day 14, 30 mg/kg): 0.00 | Average detailed clinical score, left hind limb (Day 14, 30 mg/kg): 0.00 | Average detailed clinical score, right forelimb (Day 14, 30 mg/kg): 0.00 | Average detailed clinical score, right hind limb (Day 14, 30 mg/kg): 0.13 | Average detailed clinical score, score (Day 14, 30 mg/kg): 0.13 | Mean overall clinical score ± SD (Day 14, 30 mg/kg): 0 ± 0 | Mean animal paw volume ± SD (Day 15, L paw, 3 mg/kg): 1.86 mL | Animal paw volume percent change (Day 15, L paw, 3 mg/kg): 31.80% and 28.90% and 44.87% and 22.68% and 86.59% and 50.55% and 30.34% | Mean animal paw volume ± SD (Day 15, L paw, 10 mg/kg): 1.83 mL | Animal paw volume percent change (Day 15, L paw, 10 mg/kg): 53.43% and 36.90% and 80.93% and 93.39% and 7.66% and 22.69% | Mean animal paw volume ± SD (Day 15, L paw, 30 mg/kg): 1.45 mL | Mean animal paw volume ± SD (Day 15, R paw, 3 mg/kg): 1.92 mL | Animal paw volume percent change (Day 15, R paw, 3 mg/kg): 25.86% and 20.97% and 74.62% and 27.24% and 84.29% and 50.19% and 48.69% | Mean animal paw volume ± SD (Day 15, R paw, 10 mg/kg): 1.75 mL | Animal paw volume percent change (Day 15, R paw, 10 mg/kg): 37.01% and 45.42% and 94.98% and 47.10% and 6.18% and 10.73% | Mean animal paw volume ± SD (Day 15, R paw, 30 mg/kg): 1.48 mL | Detailed Clinical Scores: left forelimb (Day 15, 3 mg/kg): 0 | Detailed Clinical Scores: left hind limb (Day 15, 3 mg/kg): 1 (3×) and 2 (3×) and 4 and 3 | Detailed Clinical Scores: right forelimb (Day 15, 3 mg/kg): 0 (6×) and 1 (2×) | Detailed Clinical Scores: right hind limb (Day 15, 3 mg/kg): 1 (3×) and 3 (2×) and 2 (2×) and 4 | Detailed Clinical Scores: score (Day 15, 3 mg/kg): 2 and 3 (3×) and 6 (2×) and 8 and 4 | Detailed Clinical Scores: left forelimb (Day 15, 10 mg/kg): 0 | Detailed Clinical Scores: left hind limb (Day 15, 10 mg/kg): 3 (2×) and 2 and 4 and 0 (2×) and 1 (2×) | Detailed Clinical Scores: right forelimb (Day 15, 10 mg/kg): 0 | Detailed Clinical Scores: right hind limb (Day 15, 10 mg/kg): 2 (3×) and 4 and 0 (2×) and 1 (2×) | Detailed Clinical Scores: score (Day 15, 10 mg/kg): 5 and 4 and 7 and 6 and 0 and 1 (2×) and 2 | Detailed Clinical Scores: left forelimb (Day 15, 30 mg/kg): 0 | Detailed Clinical Scores: left hind limb (Day 15, 30 mg/kg): 0 (6×) and 2 and 1 | Detailed Clinical Scores: right forelimb (Day 15, 30 mg/kg): 0 | Detailed Clinical Scores: right hind limb (Day 15, 30 mg/kg): 1 (2×) and 0 (5×) and 2 | Detailed Clinical Scores: score (Day 15, 30 mg/kg): 1 and 2 (3×) and 0 (4×) | Average detailed clinical score, left forelimb (Day 15, 3 mg/kg): 0.00
